Measurements as given in ChEMBL document CHEMBL1799957, “Cerebrosides and 2-pyridone alkaloids from the halotolerant fungus Penicillium chrysogenum grown in a hypersaline medium” (J Nat Prod, 2011).
Values after ≈ are worked out from the molar mass of the structure shown.

What was measured:
Bacillus subtilis = assay: Antimicrobial activity against Bacillus subtilis by agar dilution method; type: functional
Pseudomonas aeruginosa = assay: Antimicrobial activity against Pseudomonas aeruginosa by agar dilution method; type: functional
Candida albicans = assay: Antimicrobial activity against Candida albicans by agar dilution method; type: functional
Staphylococcus aureus = assay: Antimicrobial activity against Staphylococcus aureus by agar dilution method; type: functional
Klebsiella aerogenes = assay: Antimicrobial activity against Enterobacter aerogenes by agar dilution method; type: functional
Escherichia coli = assay: Antimicrobial activity against Escherichia coli by agar dilution method; type: functional
A549 = assay: Cytotoxicity against human A549 cells by SRB assay; type: functional, cell-based
HL-60 = assay: Cytotoxicity against human HL60 cells by MTT assay; type: functional, cell-based
P388 = assay: Cytotoxicity against mouse P388 cells by MTT assay; type: functional, cell-based
HeLa = assay: Cytotoxicity against human HeLa cells by MTT assay; type: functional, cell-based

| Compound | MIC (Bacillus subtilis) | MIC (Pseudomonas aeruginosa) | MIC (Candida albicans) | MIC (Staphylococcus aureus) | MIC (Klebsiella aerogenes) | MIC (Escherichia coli) | IC50 (A549) | IC50 (HL-60) | IC50 (P388) | IC50 (HeLa) |
| --- | --- | --- | --- | --- | --- | --- | --- | --- | --- | --- |
| CCC[C@H](O)c1ccc(=O)[nH]c1C [CHRYSOGEDONE A] | > 150 µM | > 150 µM | > 150 µM | > 150 µM | > 150 µM | > 150 µM | > 50 µM | > 50 µM | – | – |
| CCC[C@H](O)c1ccc(=O)[nH]c1CO [CHRYSOGEDONE B] | > 150 µM | > 150 µM | > 150 µM | > 150 µM | > 150 µM | > 150 µM | > 50 µM | > 50 µM | – | – |
| CCCCCCC/C=C\CC/C=C/[C@@H](O)[C@H](CO[C@@H]1O[C@H](CO)[C@@H](O)[C@H](O)[C@H]1O)NC(=O)[C@H](O)/C=C/CCCCCCCCCCCCCC [CHRYSOGESIDE A] | > 150 µM | > 150 µM | > 150 µM | > 150 µM | > 150 µM | > 150 µM | – | – | > 50 µM | > 50 µM |
| CCCCCCCCCCCCCCC/C=C/[C@@H](O)C(=O)N[C@@H](CO[C@@H]1O[C@H](CO)[C@@H](O)[C@H](O)[C@H]1O)[C@H](O)/C=C/CC/C=C(\C)CCCCCC [CHRYSOGESIDE B] | > 150 µM | > 150 µM | > 150 µM | > 150 µM | 1.72 µM (≈ 1.25 µg/mL) | > 150 µM | – | – | > 50 µM | > 50 µM |
| CCCCCCCCCCCCCCC/C=C/[C@@H](O)C(=O)N[C@@H](CO[C@@H]1O[C@H](CO)[C@@H](O)[C@H](O)[C@H]1O)[C@H](O)/C=C/CC/C=C(\C)CCCCC [CHRYSOGESIDE C] | > 150 µM | > 150 µM | > 150 µM | > 150 µM | > 150 µM | > 150 µM | – | – | > 50 µM | > 50 µM |
| CCCCCCCCCCCCCCC/C=C/[C@@H](O)C(=O)N[C@@H](CO[C@@H]1O[C@H](CO)[C@@H](O)[C@H](O)[C@H]1O)[C@H](O)/C=C/CC/C=C(\C)CCCCCCCC [CHRYSOGESIDE D] | > 150 µM | > 150 µM | > 150 µM | > 150 µM | > 150 µM | > 150 µM | – | – | > 50 µM | > 50 µM |
| CCCCCCCCCCCCCCCCC[C@@H](O)C(=O)N[C@@H](CO[C@@H]1O[C@H](CO)[C@@H](O)[C@H](O)[C@H]1O)[C@H](O)/C=C/CC/C=C(\C)CCCCCC [CHRYSOGESIDE E] | > 150 µM | > 150 µM | > 150 µM | > 150 µM | > 150 µM | > 150 µM | – | – | > 50 µM | > 50 µM |
